Data from patent publication US11147272B2, “Pyridone compounds and agricultural and horticultural fungicides comprising the same as active ingredients” (MITSUI CHEMICALS AGRO, INC., priority 2017, dated 2021).

Key:
Magnaporthe grisea = experiment: whole plant or invertebrate; type: in vivo; conditions: for Test A control value class: class of control value
Alternaia brassicicola = experiment: Test Example C: Alternaria sooty spot on cabbage; type: in vivo
Text: Seeds of a test plant (cabbage variety: Shikidori) were planted and cultivated until the cotyledons extended.
<Control Value> Control value=100{1−(n/3)}

Puccinia recondita = experiment: Test Example E: Brown rust on wheat; type: in vivo
Phytophthora infestans = experiment: whole plant or invertebrate; type: in vivo; conditions: for Test F control value class: class of control value
Botrytis cinerea = experiment: Test Example B: Gray mold on tomato; conditions: for Test B control value class: class of control value
Plasmopara viticola = experiment: Test Example G: Downy mildew on vine; conditions: for Test G control value: 7 to 10 days after inoculation; for Test G control value class: Downy mildew on vine (Neomuscat), 2.5 ml/pot, assessed 7 to 10 days after inoculation
[1] = system: Colletotrichum orbiculare; experiment: Test Example H: Anthracnose on cucumber; conditions: for Test H control value: 6 to 10 days after inoculation; for Test H control value class: Anthracnose on cucumber (Sagami Hanjiro), 2.5 ml/pot, assessed 6 to 10 days after inoculation
[2] = system: Blumeria graminis f. sp. hordei; experiment: Test Example D: Powdery mildew on barley; conditions: for Test D control value class: class of control value
[3] = Blast on rice, control value class
[4] = Alternaria sooty spot on cabbage, control value class
[5] = Brown rust on wheat, control value class
[6] = Late blight on tomato, control value class
[7] = Gray mold on tomato, control value class
[8] = Downy mildew on vine, 250 ppm spray
[9] = Anthracnose on cucumber, 250 ppm spray
[10] = Powdery mildew on barley, control value class
[11] = 250 ppm drug solution sprayed on test plant
[12] = 250 ppm drug solution sprayed (2.5 ml/pot), grape Neomuscat
[13] = 250 ppm drug solution sprayed (2.5 ml/pot), cucumber Sagami Hanjiro
[14] = Alternaria sooty spot on cabbage, class of control value
[15] = Brown rust on wheat, class of control value

Compound | Test A control value (Magnaporthe grisea; [3]) | Test C control value (Alternaia brassicicola; [4]) | Test E control value (Puccinia recondita; [5]) | Test F control value (Phytophthora infestans; [6]) | Test B control value (Botrytis cinerea; [7]) | Test G control value (Plasmopara viticola; [8]) | Test H control value [1, 9] | Test D control value [2, 10] | Test A control value (Magnaporthe grisea; [11]) | Test C control value (Alternaia brassicicola; [11]) | Test E control value (Puccinia recondita; [11]) | Test F control value (Phytophthora infestans; [11]) | Test B control value (Botrytis cinerea; [11]) | Test G control value (Plasmopara viticola; [12]) | Test H control value [1, 13] | Test D control value [2, 11] | further results
CCOC(C)(c1cc(Cl)c(=O)n(CC)c1-c1c(F)cccc1F)C(C)C (racemic) [compound 188] | H (more than 50% control value) | H (more than 50% control value) | H (more than 50% control value) | H (more than 50% control value) | H (more than 50% control value) | H (more than 50% control value) | H (more than 50% control value) | H (more than 50% control value) | – | – | – | – | – | – | – | – | –
CCC(C)(O)c1cc(Cl)c(=O)n(C)c1-c1c(F)cc(OC)cc1F (centres unmarked) [compound 513] | – | – | – | – | – | – | – | – | H (more than 50% control value) | H (more than 50% control value) | H (more than 50% control value) | L (50% or less control value) | H (more than 50% control value) | H (more than 50% control value) | H (more than 50% control value) | H (more than 50% control value) | –
CCC(OC)c1cc(Br)c(=O)n(CC)c1-c1c(F)cc(OC)cc1F (centres unmarked) [compound 507] | – | – | – | – | – | – | – | – | H (more than 50% control value) | H (more than 50% control value) | H (more than 50% control value) | L (50% or less control value) | H (more than 50% control value) | H (more than 50% control value) | H (more than 50% control value) | H (more than 50% control value) | –
CCn1c(-c2ccc(Br)cc2Cl)c(CC(C)C)ccc1=O [compound 225] | L (50% or less control value) | H (more than 50% control value) | H (more than 50% control value) | L (50% or less control value) | H (more than 50% control value) | L (50% or less control value) | L (50% or less control value) | H (more than 50% control value) | – | – | – | – | – | – | – | – | –
CCOC(c1cc(Cl)c(=O)n(C)c1-c1c(F)cc(OC)cc1F)C(C)C (centres unmarked) [compound 499] | – | – | – | – | – | – | – | – | H (more than 50% control value) | H (more than 50% control value) | H (more than 50% control value) | L (50% or less control value) | H (more than 50% control value) | H (more than 50% control value) | H (more than 50% control value) | H (more than 50% control value) | –
CCCCCCc1ccc(=O)n(CC)c1-c1ccc(F)cc1Cl [compound 291] | L (50% or less control value) | L (50% or less control value) | H (more than 50% control value) | L (50% or less control value) | L (50% or less control value) | L (50% or less control value) | H (more than 50% control value) | H (more than 50% control value) | – | – | – | – | – | – | – | – | –
CCCc1ccc(=O)n(C)c1-c1ccc(OC)cc1Br [compound 416] | – | – | – | – | – | – | – | – | L (50% or less control value) | L (50% or less control value) | H (more than 50% control value) | L (50% or less control value) | L (50% or less control value) | L (50% or less control value) | L (50% or less control value) | L (50% or less control value) | –
CCCCCCc1cc(Br)c(=O)n(CC)c1-c1ccc(F)cc1Cl [compound 293] | L (50% or less control value) | H (more than 50% control value) | L (50% or less control value) | L (50% or less control value) | L (50% or less control value) | L (50% or less control value) | L (50% or less control value) | H (more than 50% control value) | – | – | – | – | – | – | – | – | –
CCn1c(-c2c(F)cc(F)cc2F)c(CC(C)C)cc(Cl)c1=O [compound 41] | – | – | – | – | – | – | – | – | – | – | – | – | – | – | – | – | Test A control value class (Magnaporthe grisea; Blast on rice): H (more than 50% control value); Test C control value class (Alternaia brassicicola; [14]): H (more than 50% control value); Test E control value class (Puccinia recondita; [15]): H (more than 50% control value); Test F control value class (Phytophthora infestans; Late blight on tomato): L (50% or less control value); Test B control value class (Botrytis cinerea; Gray mold on tomato): H (more than 50% control value); Test G control value class (Plasmopara viticola; 250 ppm spray): H (more than 50% control value); Test H control value class ([1]; 250 ppm spray): H (more than 50% control value); Test D control value class ([2]; Powdery mildew on barley): H (more than 50% control value)
CCn1c(-c2c(F)cc(F)cc2F)c(COc2ccc(OC)cc2)cc(Cl)c1=O [compound 310] | L (50% or less control value) | H (more than 50% control value) | H (more than 50% control value) | L (50% or less control value) | H (more than 50% control value) | H (more than 50% control value) | L (50% or less control value) | L (50% or less control value) | – | – | – | – | – | – | – | – | –
CC=Cc1cc(Cl)c(=O)n(CC)c1-c1ccc(F)cc1Cl [compound 299] | L (50% or less control value) | H (more than 50% control value) | H (more than 50% control value) | L (50% or less control value) | H (more than 50% control value) | H (more than 50% control value) | H (more than 50% control value) | H (more than 50% control value) | – | – | – | – | – | – | – | – | –
C#CCOc1ccc(-c2c(CC(C)C)cc(Cl)c(=O)n2CC)c(F)c1 [compound 125] | – | – | – | – | – | – | – | – | – | – | – | – | – | – | – | – | Test A control value class (Magnaporthe grisea; Blast on rice): H (more than 50% control value); Test C control value class (Alternaia brassicicola; [14]): H (more than 50% control value); Test E control value class (Puccinia recondita; [15]): H (more than 50% control value); Test F control value class (Phytophthora infestans; Late blight on tomato): L (50% or less control value); Test B control value class (Botrytis cinerea; Gray mold on tomato): H (more than 50% control value); Test G control value class (Plasmopara viticola; 250 ppm spray): H (more than 50% control value); Test H control value class ([1]; 250 ppm spray): H (more than 50% control value); Test D control value class ([2]; Powdery mildew on barley): H (more than 50% control value)
CCn1c(-c2c(F)cc(OC)cc2F)c(C(C)C)ccc1=O [Compound No. 10, 6-(2,6-Difluoro-4-methoxyphenyl)-1-ethyl-5-isopropylpyridin-2(1H)-one] | – | – | – | – | – | – | – | – | – | – | – | – | – | – | – | – | pest or weed control at 250 µg/mL (Magnaporthe grisea; Pyricularia oryzae, in Oryza sativa, read-out: Test A control value class): > 50%; pest or weed control at 250 µg/mL (Alternaia brassicicola; Brassica oleracea, topical, Alternaria sooty spot on cabbage, class of control value, read-out: Test C control value class): > 50%; pest or weed control at 250 µg/mL (Puccinia recondita; Puccinia recondita, topical, Brown rust on wheat, class of control value, read-out: Test E control value class): > 50%; pest or weed control at 250 µg/mL (Phytophthora infestans; Phytophthora infestans, in Solanum lycopersicum, topical, read-out: Test F control value class): < 50%; pest or weed control at 250 µg/mL (Botrytis cinerea; Botrytis cinerea, in Solanum lycopersicum, topical, read-out: Test B control value class): > 50%; pest or weed control at 250 ppm (Plasmopara viticola; Plasmopara viticola, topical, read-out: Test G control value class): < 50%; pest or weed control at 250 ppm ([1]; Colletotrichum orbiculare, in Cucumis sativus, topical, read-out: Test H control value class): > 50%; pest or weed control at 250 µg/mL ([2]; Blumeria graminis, in Hordeum vulgare, topical, read-out: Test D control value class): > 50%
